Measured values taken from the supplement of paper PMC6965134.
± gives the standard deviation of the averaged measurements.

Assay: TIMS collisional cross section (CCS, N2) of the lipid ion; higher = larger ion cross section
Details: ionization mode: negative, one isomer drawn
Experimental: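 Lipid extracts of human plasma (NIST SRM 1950), mouse liver or HeLa cells were separated by nanoflow C18 LC (30 min gradient) and analysed by TIMS-PASEF on a timsTOF Pro. Ion mobility was calibrated with the Agilent tuning mix (negative mode ions) and converted to collisional cross sections (Mason–Schamp, N2).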

[1] = sample type: Human plasma, ion (formula + adduct): [C47H83O13P-H] 1-
[2] = sample type: Human plasma, ion (formula + adduct): [C45H81O13P-H] 1-
[3] = sample type: Mouse Liver, ion (formula + adduct): [C45H81O13P-H] 1-
[4] = sample type: Mouse Liver, ion (formula + adduct): [C45H79O13P-H] 1-
[5] = sample type: Mouse Liver, ion (formula + adduct): [C44H76NO10P-H] 1-
[6] = sample type: Mouse Liver, ion (formula + adduct): [C44H74NO10P-H] 1-
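Also: lipids from MTBE extraction, five replicate injections per sample, 100 ms TIMS ramp spanning 0.6–1.95 Vs/cm², lipid identity assigned from PASEF MS/MS spectra.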

SMILES: CCCC/C=C\CCCCCCCC(=O)OCC(COP(=O)(O)OC1C(O)C(O)C(O)C(O)C1O)OC(=O)CCCCCCC/C=C\C/C=C\CCCCC (stereo not drawn) [PI 14:1@_18:2]
- TIMS collisional cross section (sample type: Human plasma, ion (formula + adduct): [C41H73O13P+AcO] 1-): 287.2 Å²

SMILES: CCCCCC/C=C\CCCCCCCC(=O)OC[C@H](COP(=O)(O)OC1C(O)C(O)C(O)[C@@H](O)C1O)OC(=O)CCCCCCCCCCCCCCC (stereo partly drawn) [PI 16:1_16:0@]
- TIMS collisional cross section (sample type: Human plasma, ion (formula + adduct): [C41H77O13P-H] 1-): 282.6 Å²

SMILES: CCCCC/C=C\C/C=C\C/C=C\C/C=C\CCCC(=O)O[C@H](COC(=O)CCCCCCCCCCCCCCCCC)COP(=O)(O)OC1C(O)C(O)C(O)[C@@H](O)C1O (stereo partly drawn) [PI 18:0_20:4@]
- TIMS collisional cross section [1]: 298.1 Å²

SMILES: CCCCC/C=C\C/C=C\C/C=C\C/C=C\CCCC(=O)O[C@H](COC(=O)CCCCCCCCCCCCCCCCC)COP(=O)(O)OC1C(O)C(O)C(O)[C@@H](O)C1O (stereo partly drawn) [PI 18:0_20:4]
- TIMS collisional cross section [1]: 297.6 Å²
- TIMS collisional cross section (sample type: Mouse Liver, ion (formula + adduct): [C47H83O13P-H] 1-): 297.6 Å²

SMILES: CCCCCCCC/C=C\CCCCCCCC(=O)OCC(COP(=O)(O)OC1C(O)C(O)C(O)C(O)C1O)OC(=O)CCCCCCC/C=C\CCCCCCCCC (stereo not drawn) [PI 18:1_19:1]
- TIMS collisional cross section (sample type: Human plasma, ion (formula + adduct): [C46H85O13P-CH3] 1-): 293.6 Å²

SMILES: CC/C=C\C/C=C\C/C=C\C/C=C\C/C=C\C/C=C\CCC(=O)O[C@H](COC(=O)CCCCCCC/C=C\CCCCCCCC)COP(=O)(O)OC1C(O)C(O)C(O)[C@@H](O)C1O (stereo partly drawn) [PI 18:1_22:6@]
- TIMS collisional cross section (sample type: Mouse Liver, ion (formula + adduct): [C49H81O13P-H] 1-): 299.8 Å²

SMILES: CCCCC/C=C\C/C=C\CCCCCCCC(=O)OC[C@H](COP(=O)(O)OC1[C@H](O)[C@H](O)C(O)[C@H](O)[C@H]1O)OC(=O)CCCCCCC/C=C\CCCCCCCC (stereo partly drawn) [PI 18:2_18:1]
- TIMS collisional cross section [2]: 292.5 Å²
- TIMS collisional cross section [3]: 291.9 Å²

SMILES: CCCCC/C=C\C/C=C\CCCCCCCC(=O)OC[C@H](COP(=O)(O)OC1C(O)C(O)C(O)[C@@H](O)C1O)OC(=O)CCCCCCC/C=C\C/C=C\CCCCC (stereo partly drawn) [PI 18:2_18:2]
- TIMS collisional cross section [4]: 290.2 Å²

SMILES: CCCCC/C=C\C/C=C\CCCCCCCCCC(=O)OC[C@H](COP(=O)(O)OC1[C@H](O)[C@H](O)C(O)[C@H](O)[C@H]1O)OC(=O)CCCCCCCCCCCCCCCCC (stereo partly drawn) [PI 20:2_18:0@]
- TIMS collisional cross section (sample type: Human plasma, ion (formula + adduct): [C47H87O13P-H] 1-): 300.4 Å²

SMILES: CCCCC/C=C\C/C=C\C/C=C\CCCCCCC(=O)OC[C@H](COP(=O)(O)OC1[C@H](O)[C@H](O)C(O)[C@H](O)[C@H]1O)OC(=O)CCCCCCCCCCCCCCC (stereo partly drawn) [PI 20:3@_16:0]
- TIMS collisional cross section [2]: 298.9 Å²

SMILES: CCCCC/C=C\C/C=C\C/C=C\CCCCCCC(=O)OC[C@H](COP(=O)(O)OC1[C@H](O)[C@H](O)C(O)[C@H](O)[C@H]1O)OC(=O)CCCCCCCCCCCCCCC (stereo partly drawn) [PI 20:3_16:0@]
- TIMS collisional cross section [3]: 293.1 Å²

SMILES: CCCCC/C=C\C/C=C\C/C=C\C/C=C\CCCC(=O)OC[C@H](COP(=O)(O)OC1[C@H](O)[C@H](O)C(O)[C@H](O)[C@H]1O)OC(=O)CCCCCCCCCCCCCCC (stereo partly drawn) [PI 20:4@_16:0]
- TIMS collisional cross section [4]: 303.5 Å²

SMILES: CCCCC/C=C\C/C=C\C/C=C\C/C=C\CCCC(=O)OC[C@H](COP(=O)(O)OC1[C@H](O)[C@H](O)C(O)[C@H](O)[C@H]1O)OC(=O)CCCCCCCCCCCCCCC (stereo partly drawn) [PI 20:4_16:0]
- TIMS collisional cross section (sample type: Human plasma, ion (formula + adduct): [C45H79O13P-H] 1-): 291.9 Å²
- TIMS collisional cross section [4]: 291.3 Å²

SMILES: CC/C=C\C/C=C\C/C=C\C/C=C\C/C=C\CCCC(=O)OC[C@H](COP(=O)(O)OC1[C@H](O)[C@H](O)C(O)[C@H](O)[C@H]1O)OC(=O)CCCCCCCCCCCCCCC (stereo partly drawn) [PI 20:5@_16:0]
- TIMS collisional cross section (sample type: Mouse Liver, ion (formula + adduct): [C45H77O13P-H] 1-): 290.1 ± 1.1 Å²

SMILES: CC/C=C\C/C=C\C/C=C\C/C=C\C/C=C\CCCC(=O)OC[C@H](COP(=O)(O)OC1[C@H](O)[C@H](O)C(O)[C@H](O)[C@H]1O)OC(=O)CCCCCCCCCCCCCCCCC (stereo partly drawn) [PI 20:5_18:0@]
- TIMS collisional cross section (sample type: Mouse Liver, ion (formula + adduct): [C47H81O13P-H] 1-): 296.4 Å²

SMILES: CCCCCCCCCCCCCCCC(=O)O[C@H](COC(=O)CCCCCCCCCCC)COP(=O)(O)OC[C@H](N)C(=O)O [PS 12:0@_16:0]
- TIMS collisional cross section (sample type: Mouse Liver, ion (formula + adduct): [C34H66NO10P-H] 1-): 262.8 Å²

SMILES: CCCC/C=C\CCCCCCCC(=O)OC[C@H](COP(=O)(O)OC[C@H](N)C(=O)O)OC(=O)CCCCCCCCCCCCCCC [PS 14:1@_16:0]
- TIMS collisional cross section (sample type: Human plasma, ion (formula + adduct): [C36H68NO10P-H] 1-): 269 Å²
- TIMS collisional cross section (sample type: Mouse Liver, ion (formula + adduct): [C36H68NO10P-H] 1-): 268.4 Å²

SMILES: CCCCCCCCCCCCCCCC(=O)OC[C@H](COP(=O)(O)OC[C@H](N)C(=O)O)OC(=O)CCCCCCCCCCCCC [PS 16:0_14:0@]
- TIMS collisional cross section (sample type: Human plasma, ion (formula + adduct): [C36H70NO10P-H] 1-): 269.6 Å²

SMILES: CCCCCCCCCCCCCCCCCC(=O)OC[C@H](COP(=O)(O)OC[C@H](N)C(=O)O)OC(=O)CCCCCCCCCCCCCC [PS 18:0_15:0@]
- TIMS collisional cross section (sample type: Human plasma, ion (formula + adduct): [C39H76NO10P+OAcO] 1-): 293.3 Å²

SMILES: CC/C=C\C/C=C\C/C=C\C/C=C\C/C=C\C/C=C\CCC(=O)O[C@H](COC(=O)CCCCCCC/C=C\CCCCCCCC)COP(=O)(O)OC[C@H](N)C(=O)O [PS 18:1@_22:6]
- TIMS collisional cross section (sample type: Mouse Liver, ion (formula + adduct): [C46H76NO10P-H] 1-): 288 Å²

SMILES: CCCCCCCC/C=C\CCCCCCCC(=O)OC[C@H](COP(=O)(O)OC[C@H](N)C(=O)O)OC(=O)CCCCCCCCCCCCCCCCC [PS 18:1_18:0]
- TIMS collisional cross section (sample type: Mouse Liver, ion (formula + adduct): [C42H80NO10P-H] 1-): 284.2 Å²

SMILES: CCCCC/C=C\C/C=C\CCCCCCCC(=O)OC[C@H](COP(=O)(O)OC[C@H](N)C(=O)O)OC(=O)CCCCCCCCCCCCCCC [PS 18:2@_16:0]
- TIMS collisional cross section (sample type: Mouse Liver, ion (formula + adduct): [C40H74NO10P-H] 1-): 282.6 Å²

SMILES: CC/C=C\C/C=C\C/C=C\C/C=C\C/C=C\C/C=C\CCC(=O)O[C@H](COC(=O)CCCCCCCCC/C=C\C/C=C\CCCCC)COP(=O)(O)OC[C@H](N)C(=O)O [PS 20:2@_22:6]
- TIMS collisional cross section (sample type: Mouse Liver, ion (formula + adduct): [C48H78NO10P-H] 1-): 296.6 Å²

SMILES: CCCCC/C=C\C/C=C\C/C=C\CCCCCCC(=O)OC[C@H](COP(=O)(O)OC[C@H](N)C(=O)O)OC(=O)CCCCCCCCCCCCCCC [PS 20:3@_16:0]
- TIMS collisional cross section (sample type: Mouse Liver, ion (formula + adduct): [C42H76NO10P-H] 1-): 281.3 Å²

SMILES: CCCCC/C=C\C/C=C\C/C=C\CCCCCCC(=O)OC[C@H](COP(=O)(O)OC[C@H](N)C(=O)O)OC(=O)CCCCCCCCCCCCCCCCC [PS 20:3_18:0]
- TIMS collisional cross section (sample type: Mouse Liver, ion (formula + adduct): [C44H80NO10P-H] 1-): 286.4 Å²

SMILES: CCCCC/C=C\C/C=C\C/C=C\C/C=C\CCCC(=O)OC[C@H](COP(=O)(O)OC[C@H](N)C(=O)O)OC(=O)CCCCCCCCCCCCCCC [PS 20:4_16:0]
- TIMS collisional cross section (sample type: Mouse Liver, ion (formula + adduct): [C42H74NO10P-H] 1-): 280.1 Å²

SMILES: CCCCC/C=C\C/C=C\C/C=C\C/C=C\CCCC(=O)OC[C@H](COP(=O)(O)OC[C@H](N)C(=O)O)OC(=O)CCCCCCC/C=C\CCCCCCCC [PS 20:4_18:1]
- TIMS collisional cross section [5]: 284.6 Å²

SMILES: CCCCC/C=C\C/C=C\C/C=C\C/C=C\CCCC(=O)OC[C@H](COP(=O)(O)OC[C@H](N)C(=O)O)OC(=O)CCCCCCC/C=C\C/C=C\CCCCC [PS 20:4_18:2@]
- TIMS collisional cross section [6]: 286.4 Å²

SMILES: CCCCC/C=C\C/C=C\C/C=C\C/C=C\CCCC(=O)OC[C@H](COP(=O)(O)OC[C@H](N)C(=O)O)OC(=O)CCC/C=C\C/C=C\C/C=C\C/C=C\CCCCC [PS 20:4_20:4]
- TIMS collisional cross section (sample type: Mouse Liver, ion (formula + adduct): [C46H74NO10P-H] 1-): 287.4 Å²

SMILES: CC/C=C\C/C=C\C/C=C\C/C=C\C/C=C\CCCC(=O)OC[C@H](COP(=O)(O)OC[C@H](N)C(=O)O)OC(=O)CCCCCCCCCCCCCCC [PS 20:5_16:0]
- TIMS collisional cross section (sample type: Mouse Liver, ion (formula + adduct): [C42H72NO10P-H] 1-): 279 Å²

SMILES: CC/C=C\C/C=C\C/C=C\C/C=C\C/C=C\CCCC(=O)OC[C@H](COP(=O)(O)OC[C@H](N)C(=O)O)OC(=O)CCCCCCCCCCCCCCCCC [PS 20:5_18:0]
- TIMS collisional cross section [5]: 284.6 Å²

SMILES: CCCCC/C=C\C/C=C\C/C=C\C/C=C\CCCCCC(=O)OC[C@H](COP(=O)(O)OC[C@H](N)C(=O)O)OC(=O)CCCCCCCCCCCCCCC [PS 22:4@_16:0]
- TIMS collisional cross section (sample type: Mouse Liver, ion (formula + adduct): [C44H78NO10P-H] 1-): 288.7 Å²

SMILES: CCCCC/C=C\C/C=C\C/C=C\C/C=C\CCCCCC(=O)OC[C@H](COP(=O)(O)OC[C@H](N)C(=O)O)OC(=O)CCCCCCCCCCCCCCCCC [PS 22:4_18:0]
- TIMS collisional cross section (sample type: Mouse Liver, ion (formula + adduct): [C46H82NO10P-H] 1-): 291.4 Å²

SMILES: CC/C=C\C/C=C\C/C=C\C/C=C\C/C=C\C/C=C\CCC(=O)OC[C@H](COP(=O)(O)OC[C@H](N)C(=O)O)OC(=O)CCCCCCCCCCCCCCC [PS 22:6_16:0]
- TIMS collisional cross section [6]: 283.5 Å²
